Laboratory results as given in patent US20230085307A1, “PYRIDAZINONE COMPOUND AND HERBICIDE” (NISSAN CHEMICAL CORPORATION, priority 2019, published 2023).

What was measured:
late watergrass = assay: Test Example 1: herbicidal activity, application before weed generation under submerged conditions (Table 16, symbol A); type: in vivo, late watergrass (Echinochloa oryzicola); conditions: 320 g/ha applied herbicide
Outline: (§1)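 Emulsion formulation, water-diluted to set dose, was put onto the flooded surface (4 cm depth, alluvial soil) the same day weeds were sown and 2.5-leaf rice transplanted. After 3 weeks at 25-30 °C under glass, each species was rated 0 (≤5% kill) to 5 (≥90% kill).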

Japanese bulrush [1] = assay: Test Example 1: herbicidal activity, application before weed generation under submerged conditions (Table 16, symbol B); type: in vivo, Japanese bulrush (Schoenoplectus juncoides); conditions: 320 g/ha applied herbicide
Outline: as §1

Japanese bulrush [2] = assay: Test Example 2: herbicidal activity, application during weed generation under submerged conditions (Table 17, symbol B); type: in vivo, Japanese bulrush (Schoenoplectus juncoides); conditions: AAH 320 g/ha; application during weed generation, submerged conditions
Outline: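 Steps: fill Wagner pots with alluvial soil; add water to give 4 cm depth; sow the species mixed; grow under glass at 25–30° C.; at 1–2 leaves apply water-diluted emulsion formulation to the water surface at a fixed herbicide amount; score after 3 weeks.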

barnyard grass [3] = assay: Test Example 3: herbicidal effect by foliage application, Wagner pot (Table 18, symbol H); type: in vivo, barnyard grass (Echinochloa crus-galli); conditions: amount of applied herbicide 320 g/ha
Outline: (§2)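 Plants were sown in alluvial soil held under 0.1–0.5 cm standing water and grown 14 days in a greenhouse at 25–30 °C. An emulsifiable formulation, water-diluted to the set dose, was then sprayed onto the foliage, and effects were scored three weeks later using previously defined criteria.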

Chinese sprangletop = assay: Test Example 3: herbicidal effect by foliage application, Wagner pot (Table 18, symbol D); type: in vivo, chinese sprangletop (Leptochloa chinensis); conditions: amount of applied herbicide 320 g/ha
Outline: as §2

southern crabgrass [4] = assay: Test Example 4: herbicidal effect by soil treatment (Table 19, symbol F); type: in vivo, southern crabgrass (Digitaria ciliaris); conditions: amount of applied herbicide 320 g/ha
Outline: (§3)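 Emulsion of test compound, water-diluted to predetermined amount, sprayed on soil after sowing (seed depth ~1.5 cm, sterilized diluvial soil). Greenhouse, 25–30° C. Effect graded at three weeks post-spray.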

barnyard grass [5] = assay: Test Example 4: herbicidal effect by soil treatment (Table 19, symbol H); type: in vivo, barnyard grass (Echinochloa crus-galli); conditions: amount of applied herbicide 320 g/ha
Outline: as §3

windgrass [6] = assay: Test Example 4: herbicidal effect by soil treatment (Table 19, symbol L); type: in vivo, windgrass (Apera spica-venti); conditions: amount of applied herbicide 320 g/ha
Outline: as §3

velvetleaf [7] = assay: Test Example 4: herbicidal effect by soil treatment (Table 19, symbol M); type: in vivo, velvetleaf (Abutilon theophrasti); conditions: amount of applied herbicide 320 g/ha
Outline: as §3

lambsquarters [8] = assay: Test Example 4: herbicidal effect by soil treatment (Table 19, symbol O); type: in vivo, lambsquarters (Chenopodium album); conditions: amount of applied herbicide 320 g/ha
Outline: as §3

southern crabgrass [9] = assay: Test Example 5: herbicidal effect by foliage application, plastic box (Table 20, symbol F); type: in vivo, southern crabgrass (Digitaria ciliaris); conditions: foliage application, evaluated three weeks after application; for F: southern crabgrass, herbicidal effect (criteria 0-5): AAH 320 g/ha
Outline: (§4)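 Post-emergence foliar test in sterilized diluvial soil. Compound applied as water-diluted emulsion at a predetermined rate to 14-day-old plants; evaluation at three weeks.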

wild oat = assay: Test Example 5: herbicidal effect by foliage application, plastic box (Table 20, symbol I); type: in vivo, wild oat (Avena fatua); conditions: foliage application, evaluated three weeks after application; for I: wild oat, herbicidal effect (criteria 0-5): AAH 320 g/ha
Outline: as §4

Italian ryegrass = assay: Test Example 5: herbicidal effect by foliage application, plastic box (Table 20, symbol K); type: in vivo, Italian ryegrass (Lolium multiflorum); conditions: foliage application, evaluated three weeks after application; for K: Italian ryegrass, herbicidal effect (criteria 0-5): AAH 320 g/ha
Outline: as §4

windgrass [10] = assay: Test Example 5: herbicidal effect by foliage application, plastic box (Table 20, symbol L); type: in vivo, windgrass (Apera spica-venti); conditions: foliage application, evaluated three weeks after application; for L: windgrass, herbicidal effect (criteria 0-5): AAH 320 g/ha
Outline: as §4

velvetleaf [11] = assay: Test Example 5: herbicidal effect by foliage application, plastic box (Table 20, symbol M); type: in vivo, velvetleaf (Abutilon theophrasti); conditions: foliage application, evaluated three weeks after application; for M: velvetleaf, herbicidal effect (criteria 0-5): AAH 320 g/ha
Outline: as §4

lambsquarters [12] = assay: Test Example 5: herbicidal effect by foliage application, plastic box (Table 20, symbol O); type: in vivo, lambsquarters (Chenopodium album); conditions: foliage application, evaluated three weeks after application; for O: lambsquarters, herbicidal effect (criteria 0-5): AAH 320 g/ha
Outline: as §4

persian speedwell = assay: Test Example 5: herbicidal effect by foliage application, plastic box (Table 20, symbol R); type: in vivo, Persian speedwell (Veronica persica); conditions: foliage application, evaluated three weeks after application; for R: persian speedwell, herbicidal effect (criteria 0-5): AAH 320 g/ha
Outline: as §4

Cc1nn(C)c(=O)c(-c2c(-c3ccc(SC(C)C)cc3)sc3ccc(F)cc23)c1O [2-252]
Herbicidal effect on A: late watergrass (grade 0-5) (late watergrass): 3 (Herbicidal rate of 40% or more and less than 70%)
Herbicidal effect on B: Japanese bulrush (grade 0-5) (Japanese bulrush [1]): 2 (Herbicidal rate of 20% or more and less than 40%)
herbicidal effect rating, B: Japanese bulrush (Japanese bulrush [2]): 3 (Herbicidal rate of 40% or more and less than 70%)
herbicidal effect on H: barnyard grass (barnyard grass [3]): 5 (Herbicidal rate of 90% or more (almost completely withered))
herbicidal effect on D: Chinese sprangletop (Chinese sprangletop): 5 (Herbicidal rate of 90% or more (almost completely withered))
herbicidal effect on F: southern crabgrass (southern crabgrass [4]): 2 (Herbicidal rate of 20% or more and less than 40%)
herbicidal effect on H: barnyard grass (barnyard grass [5]): 3 (Herbicidal rate of 40% or more and less than 70%)
herbicidal effect on L: windgrass (windgrass [6]): 0 (Herbicidal rate of 5% or less (almost no effect))
herbicidal effect on M: velvetleaf (velvetleaf [7]): 2 (Herbicidal rate of 20% or more and less than 40%)
herbicidal effect on O: lambsquarters (lambsquarters [8]): 4 (Herbicidal rate of 70% or more and less than 90%)
herbicidal effect on F: southern crabgrass (criteria 0-5) (southern crabgrass [9]; 320 g/ha): 4 (Herbicidal rate of 70% or more and less than 90%)
herbicidal effect on I: wild oat (criteria 0-5) (wild oat; 320 g/ha): 4 (Herbicidal rate of 70% or more and less than 90%)
herbicidal effect on K: Italian ryegrass (criteria 0-5) (Italian ryegrass; 320 g/ha): 5 (Herbicidal rate of 90% or more (almost completely withered))
herbicidal effect on L: windgrass (criteria 0-5) (windgrass [10]; 320 g/ha): 5 (Herbicidal rate of 90% or more (almost completely withered))
herbicidal effect on M: velvetleaf (criteria 0-5) (velvetleaf [11]; 320 g/ha): 5 (Herbicidal rate of 90% or more (almost completely withered))
herbicidal effect on O: lambsquarters (criteria 0-5) (lambsquarters [12]; 320 g/ha): 5 (Herbicidal rate of 90% or more (almost completely withered))
herbicidal effect on R: persian speedwell (criteria 0-5) (persian speedwell; 320 g/ha): 5 (Herbicidal rate of 90% or more (almost completely withered))

CCCC(=O)Oc1c(C)nn(C)c(=O)c1-c1c(-c2ccc(SC(C)C)cc2)sc2ccc(F)cc12 [2-253]
Herbicidal effect on A: late watergrass (grade 0-5) (late watergrass): 5 (Herbicidal rate of 90% or more (almost completely withered))
Herbicidal effect on B: Japanese bulrush (grade 0-5) (Japanese bulrush [1]): 3 (Herbicidal rate of 40% or more and less than 70%)
herbicidal effect rating, B: Japanese bulrush (Japanese bulrush [2]): 3 (Herbicidal rate of 40% or more and less than 70%)
herbicidal effect on H: barnyard grass (barnyard grass [3]): 5 (Herbicidal rate of 90% or more (almost completely withered))
herbicidal effect on D: Chinese sprangletop (Chinese sprangletop): 3 (Herbicidal rate of 40% or more and less than 70%)
herbicidal effect on F: southern crabgrass (southern crabgrass [4]): 0 (Herbicidal rate of 5% or less (almost no effect))
herbicidal effect on H: barnyard grass (barnyard grass [5]): 1 (Herbicidal rate of 5% or more and less than 20%)
herbicidal effect on L: windgrass (windgrass [6]): 0 (Herbicidal rate of 5% or less (almost no effect))
herbicidal effect on M: velvetleaf (velvetleaf [7]): 1 (Herbicidal rate of 5% or more and less than 20%)
herbicidal effect on O: lambsquarters (lambsquarters [8]): 4 (Herbicidal rate of 70% or more and less than 90%)
F: southern crabgrass, herbicidal effect (criteria 0-5) (southern crabgrass [9]): 4 (Herbicidal rate of 70% or more and less than 90%)
I: wild oat, herbicidal effect (criteria 0-5) (wild oat): 2 (Herbicidal rate of 20% or more and less than 40%)
K: Italian ryegrass, herbicidal effect (criteria 0-5) (Italian ryegrass): 3 (Herbicidal rate of 40% or more and less than 70%)
L: windgrass, herbicidal effect (criteria 0-5) (windgrass [10]): 3 (Herbicidal rate of 40% or more and less than 70%)
M: velvetleaf, herbicidal effect (criteria 0-5) (velvetleaf [11]): 5 (Herbicidal rate of 90% or more (almost completely withered))
O: lambsquarters, herbicidal effect (criteria 0-5) (lambsquarters [12]): 4 (Herbicidal rate of 70% or more and less than 90%)
R: persian speedwell, herbicidal effect (criteria 0-5) (persian speedwell): 5 (Herbicidal rate of 90% or more (almost completely withered))

CCCC(=O)Oc1c(C)nn(C)c(=O)c1-c1c(-c2ccc(SC3CC3)cc2)sc2ccc(F)cc12 [2-255]
Herbicidal effect on A: late watergrass (grade 0-5) (late watergrass): 5 (Herbicidal rate of 90% or more (almost completely withered))
Herbicidal effect on B: Japanese bulrush (grade 0-5) (Japanese bulrush [1]): 3 (Herbicidal rate of 40% or more and less than 70%)
herbicidal effect rating, B: Japanese bulrush (Japanese bulrush [2]): 3 (Herbicidal rate of 40% or more and less than 70%)
herbicidal effect on H: barnyard grass (barnyard grass [3]): 5 (Herbicidal rate of 90% or more (almost completely withered))
herbicidal effect on D: Chinese sprangletop (Chinese sprangletop): 4 (Herbicidal rate of 70% or more and less than 90%)
herbicidal effect on F: southern crabgrass (southern crabgrass [4]): 0 (Herbicidal rate of 5% or less (almost no effect))
herbicidal effect on H: barnyard grass (barnyard grass [5]): 0 (Herbicidal rate of 5% or less (almost no effect))
herbicidal effect on L: windgrass (windgrass [6]): 3 (Herbicidal rate of 40% or more and less than 70%)
herbicidal effect on M: velvetleaf (velvetleaf [7]): 3 (Herbicidal rate of 40% or more and less than 70%)
herbicidal effect on O: lambsquarters (lambsquarters [8]): 3 (Herbicidal rate of 40% or more and less than 70%)
F: southern crabgrass, herbicidal effect (criteria 0-5) (southern crabgrass [9]): 5 (Herbicidal rate of 90% or more (almost completely withered))
I: wild oat, herbicidal effect (criteria 0-5) (wild oat): 5 (Herbicidal rate of 90% or more (almost completely withered))
K: Italian ryegrass, herbicidal effect (criteria 0-5) (Italian ryegrass): 5 (Herbicidal rate of 90% or more (almost completely withered))
L: windgrass, herbicidal effect (criteria 0-5) (windgrass [10]): 5 (Herbicidal rate of 90% or more (almost completely withered))
M: velvetleaf, herbicidal effect (criteria 0-5) (velvetleaf [11]): 5 (Herbicidal rate of 90% or more (almost completely withered))
O: lambsquarters, herbicidal effect (criteria 0-5) (lambsquarters [12]): 4 (Herbicidal rate of 70% or more and less than 90%)
R: persian speedwell, herbicidal effect (criteria 0-5) (persian speedwell): 5 (Herbicidal rate of 90% or more (almost completely withered))

Cc1nn(C)c(=O)c(-c2c(-c3ccc(OC(F)F)cc3)sc3ccc(F)cc23)c1OC(=O)C1CCCC1 [2-280]
Herbicidal effect on A: late watergrass (grade 0-5) (late watergrass): 5 (Herbicidal rate of 90% or more (almost completely withered))
Herbicidal effect on B: Japanese bulrush (grade 0-5) (Japanese bulrush [1]): 3 (Herbicidal rate of 40% or more and less than 70%)
herbicidal effect rating, B: Japanese bulrush (Japanese bulrush [2]): 3 (Herbicidal rate of 40% or more and less than 70%)
herbicidal effect on H: barnyard grass (barnyard grass [3]): 5 (Herbicidal rate of 90% or more (almost completely withered))
herbicidal effect on D: Chinese sprangletop (Chinese sprangletop): 3 (Herbicidal rate of 40% or more and less than 70%)
herbicidal effect on F: southern crabgrass (southern crabgrass [4]): 0 (Herbicidal rate of 5% or less (almost no effect))
herbicidal effect on H: barnyard grass (barnyard grass [5]): 3 (Herbicidal rate of 40% or more and less than 70%)
herbicidal effect on L: windgrass (windgrass [6]): 0 (Herbicidal rate of 5% or less (almost no effect))
herbicidal effect on M: velvetleaf (velvetleaf [7]): 3 (Herbicidal rate of 40% or more and less than 70%)
herbicidal effect on O: lambsquarters (lambsquarters [8]): 5 (Herbicidal rate of 90% or more (almost completely withered))
F: southern crabgrass, herbicidal effect (criteria 0-5) (southern crabgrass [9]): 3 (Herbicidal rate of 40% or more and less than 70%)
I: wild oat, herbicidal effect (criteria 0-5) (wild oat): 3 (Herbicidal rate of 40% or more and less than 70%)
K: Italian ryegrass, herbicidal effect (criteria 0-5) (Italian ryegrass): 5 (Herbicidal rate of 90% or more (almost completely withered))
L: windgrass, herbicidal effect (criteria 0-5) (windgrass [10]): 3 (Herbicidal rate of 40% or more and less than 70%)
M: velvetleaf, herbicidal effect (criteria 0-5) (velvetleaf [11]): 5 (Herbicidal rate of 90% or more (almost completely withered))
O: lambsquarters, herbicidal effect (criteria 0-5) (lambsquarters [12]): 5 (Herbicidal rate of 90% or more (almost completely withered))
R: persian speedwell, herbicidal effect (criteria 0-5) (persian speedwell): 5 (Herbicidal rate of 90% or more (almost completely withered))
